Data taken from patent US20170333591A9, “ABSORBENT ARTICLE COMPRISING MALODOR REDUCTION COMPOSITIONS” (The Procter & Gamble Company, priority 2014, published 2017).

Experiment: Log of liquid dish neat product liquid-air partition coefficient
Assay type: physicochemical
Conditions: for Log of liquid dish neat product liquid-air partition coefficient (Comment Code K/L): code letter within the Comment Code cell

SMILES: CC(C)=CCCC(C)=CCC1CCCC1=O (racemic) [Material 307]
- Log of liquid dish neat product liquid-air partition coefficient (Comment Code K/L): K (Log of liquid dish neat product liquid-air partition coefficient greater than or equal to 7)

SMILES: C=CC(C)CCC=C(C)CCC=O (racemic) [Material 358]
- Log of liquid dish neat product liquid-air partition coefficient (Comment Code K/L): K (Log of liquid dish neat product liquid-air partition coefficient greater than or equal to 7)

SMILES: CCCCCCC#CC(OC)OC [Material 3]
- Log of liquid dish neat product liquid-air partition coefficient (Comment Code K/L): K (Log of liquid dish neat product liquid-air partition coefficient greater than or equal to 7)

SMILES: Cc1ccc(C(C)(C)O)cc1 [Material 4]
- Log of liquid dish neat product liquid-air partition coefficient (Comment Code K/L): K (Log of liquid dish neat product liquid-air partition coefficient greater than or equal to 7)

SMILES: C=C1C2CCC(C)(C)C1CCC(OC)C2 (stereo not shown) [Material 7]
- Comment Code: Log of liquid dish neat product liquid-air partition coefficient: K (Log of liquid dish neat product liquid-air partition coefficient greater than or equal to 7)
- Log of liquid dish neat product liquid-air partition coefficient (Comment Code K/L): K (Log of liquid dish neat product liquid-air partition coefficient greater than or equal to 7)

SMILES: COC1CCCCCCCCCCC1 [Material 9]
- Log of liquid dish neat product liquid-air partition coefficient (Comment Code K/L): K (Log of liquid dish neat product liquid-air partition coefficient greater than or equal to 7)

SMILES: COC1(OC)CCCCCCCCCCC1 [Material 10]
- Log of liquid dish neat product liquid-air partition coefficient (Comment Code K/L): K (Log of liquid dish neat product liquid-air partition coefficient greater than or equal to 7)

SMILES: CCCCCCCCCC/C=C\C#N [Material 11]
- Log of liquid dish neat product liquid-air partition coefficient (Comment Code K/L): K (Log of liquid dish neat product liquid-air partition coefficient greater than or equal to 7)

SMILES: CCOC1CCC(C(C)(C)CC)CC1 (stereo not shown) [Material 12]
- Comment Code: Log of liquid dish neat product liquid-air partition coefficient: K (Log of liquid dish neat product liquid-air partition coefficient greater than or equal to 7)

SMILES: CC1(O)CCOC2(CCCCC2)C1 (stereo not shown) [Material 16]
- Log of liquid dish neat product liquid-air partition coefficient (Comment Code K/L): K (Log of liquid dish neat product liquid-air partition coefficient greater than or equal to 7)

SMILES: Cc1ccc2c(c1)OCC(=O)CO2 [Material 17]
- Log of liquid dish neat product liquid-air partition coefficient (Comment Code K/L): K (Log of liquid dish neat product liquid-air partition coefficient greater than or equal to 7)

SMILES: COc1ccccc1-c1ccccc1 [Material 22]
- Log of liquid dish neat product liquid-air partition coefficient (Comment Code K/L): K (Log of liquid dish neat product liquid-air partition coefficient greater than or equal to 7)

SMILES: CC1C(C)(C)C2=C(C3OC(C)(C)OC3CC2)C1(C)C (stereo not shown) [Material 23]
- Comment Code: Log of liquid dish neat product liquid-air partition coefficient: K (Log of liquid dish neat product liquid-air partition coefficient greater than or equal to 7)
- Log of liquid dish neat product liquid-air partition coefficient (Comment Code K/L): K (Log of liquid dish neat product liquid-air partition coefficient greater than or equal to 7)

SMILES: CC(C)C1OC2(CCCC2)OCC1(C)C (stereo not shown) [Material 25]
- Log of liquid dish neat product liquid-air partition coefficient (Comment Code K/L): K (Log of liquid dish neat product liquid-air partition coefficient greater than or equal to 7)

SMILES: COc1ccccc1C=CC=O [Material 26]
- Comment Code: Log of liquid dish neat product liquid-air partition coefficient: K (Log of liquid dish neat product liquid-air partition coefficient greater than or equal to 7)

SMILES: CCCCCCCCOC(=O)c1ccco1 [Material 28]
- Log of liquid dish neat product liquid-air partition coefficient (Comment Code K/L): K (Log of liquid dish neat product liquid-air partition coefficient greater than or equal to 7)

SMILES: C=CC(=C)CCCC(C)(C)O [Material 34]
- Log of liquid dish neat product liquid-air partition coefficient (Comment Code K/L): K (Log of liquid dish neat product liquid-air partition coefficient greater than or equal to 7)

SMILES: C=CC(=C)CCCC(C)(C)OC(C)=O [Material 35]
- Log of liquid dish neat product liquid-air partition coefficient (Comment Code K/L): K (Log of liquid dish neat product liquid-air partition coefficient greater than or equal to 7)

SMILES: CCCCCCCCCCCCCC=O [Material 36]
- Log of liquid dish neat product liquid-air partition coefficient (Comment Code K/L): K (Log of liquid dish neat product liquid-air partition coefficient greater than or equal to 7)

SMILES: C=CCc1cc(OC)c2c(c1)OCO2 [Material 37]
- Log of liquid dish neat product liquid-air partition coefficient (Comment Code K/L): K (Log of liquid dish neat product liquid-air partition coefficient greater than or equal to 7)

SMILES: CCCCCCCCCCCCCC#N [Material 38]
- Log of liquid dish neat product liquid-air partition coefficient (Comment Code K/L): K (Log of liquid dish neat product liquid-air partition coefficient greater than or equal to 7)

SMILES: CC1=CC(C)C2C(CCC(C)(C)C2O)C1 (stereo not shown) [Material 39]
- Comment Code: Log of liquid dish neat product liquid-air partition coefficient: K (Log of liquid dish neat product liquid-air partition coefficient greater than or equal to 7)
- Log of liquid dish neat product liquid-air partition coefficient (Comment Code K/L): K (Log of liquid dish neat product liquid-air partition coefficient greater than or equal to 7)

SMILES: C=CC(C)=CCCC(C)(C)O [Material 42]
- Log of liquid dish neat product liquid-air partition coefficient (Comment Code K/L): K (Log of liquid dish neat product liquid-air partition coefficient greater than or equal to 7)

SMILES: C=CC(C)=CCCC(C)(C)O [Material 43]
- Log of liquid dish neat product liquid-air partition coefficient (Comment Code K/L): K (Log of liquid dish neat product liquid-air partition coefficient greater than or equal to 7)

SMILES: CC(=O)OCCC1=CCC2CC1C2(C)C (stereo not shown) [Material 47]
- Log of liquid dish neat product liquid-air partition coefficient (Comment Code K/L): K (Log of liquid dish neat product liquid-air partition coefficient greater than or equal to 7)

SMILES: C=C(C)[C@@H]1CCC2=CC(=O)C[C@@H](C)[C@]2(C)C1 [Material 48]
- Comment Code: Log of liquid dish neat product liquid-air partition coefficient: K (Log of liquid dish neat product liquid-air partition coefficient greater than or equal to 7)
- Log of liquid dish neat product liquid-air partition coefficient (Comment Code K/L): K (Log of liquid dish neat product liquid-air partition coefficient greater than or equal to 7)

SMILES: CC1CC=CCCCCCCCC(=O)OCC1 (stereo not shown) [Material 52]
- Log of liquid dish neat product liquid-air partition coefficient (Comment Code K/L): K (Log of liquid dish neat product liquid-air partition coefficient greater than or equal to 7)

SMILES: CCNC(=O)C1CC(C)CCC1C(C)C (stereo not shown) [Material 57]
- Log of liquid dish neat product liquid-air partition coefficient (Comment Code K/L): K (Log of liquid dish neat product liquid-air partition coefficient greater than or equal to 7)

SMILES: CC(C)=CCC/C(C)=C\COC=O [Material 59]
- Comment Code: Log of liquid dish neat product liquid-air partition coefficient: K (Log of liquid dish neat product liquid-air partition coefficient greater than or equal to 7)

SMILES: CC(=O)c1oc2ccccc2c1C [Material 61]
- Log of liquid dish neat product liquid-air partition coefficient (Comment Code K/L): K (Log of liquid dish neat product liquid-air partition coefficient greater than or equal to 7)

SMILES: C=CC(C)(O)CCC=C(C)CCC=C(C)C (stereo not shown) [Material 63]
- Log of liquid dish neat product liquid-air partition coefficient (Comment Code K/L): K (Log of liquid dish neat product liquid-air partition coefficient greater than or equal to 7)

SMILES: CC(C)=CCC/C(C)=C\CO [Material 64]
- Log of liquid dish neat product liquid-air partition coefficient (Comment Code K/L): K (Log of liquid dish neat product liquid-air partition coefficient greater than or equal to 7)

SMILES: CC1=CC2(C=CC(C)O2)C(C(C)C)CC1 (stereo not shown) [Material 68]
- Log of liquid dish neat product liquid-air partition coefficient (Comment Code K/L): K (Log of liquid dish neat product liquid-air partition coefficient greater than or equal to 7)

SMILES: CC1=CCC(C(C)CC2CCCC2=O)CC1 (stereo not shown) [Material 69]
- Log of liquid dish neat product liquid-air partition coefficient (Comment Code K/L): K (Log of liquid dish neat product liquid-air partition coefficient greater than or equal to 7)

SMILES: CC(=O)/C=C/C1C(C)CCC(C)C1(C)C (stereo not shown) [Material 71]
- Log of liquid dish neat product liquid-air partition coefficient (Comment Code K/L): K (Log of liquid dish neat product liquid-air partition coefficient greater than or equal to 7)

SMILES: CC(=O)OCC1CC=C(CCC=C(C)C)CC1 (stereo not shown) [Material 74]
- Log of liquid dish neat product liquid-air partition coefficient (Comment Code K/L): K (Log of liquid dish neat product liquid-air partition coefficient greater than or equal to 7)

SMILES: CC1CCCCCCCCCCCCC(=O)C1 (stereo not shown) [Material 79]
- Log of liquid dish neat product liquid-air partition coefficient (Comment Code K/L): K (Log of liquid dish neat product liquid-air partition coefficient greater than or equal to 7)

SMILES: CC1/C=C/CCCCCCCCCCC(=O)C1 (stereo not shown) [Material 80]
- Log of liquid dish neat product liquid-air partition coefficient (Comment Code K/L): K (Log of liquid dish neat product liquid-air partition coefficient greater than or equal to 7)

SMILES: CCC(C)(O)/C=C/C=C(C)C (stereo not shown) [Material 81]
- Comment Code: Log of liquid dish neat product liquid-air partition coefficient: K (Log of liquid dish neat product liquid-air partition coefficient greater than or equal to 7)

SMILES: CC(O)C(C)Cc1ccccc1 (stereo not shown) [Material 82]
- Log of liquid dish neat product liquid-air partition coefficient (Comment Code K/L): K (Log of liquid dish neat product liquid-air partition coefficient greater than or equal to 7)

SMILES: CC(C)C1CCC(C(C)O)CC1 (stereo not shown) [Material 83]
- Log of liquid dish neat product liquid-air partition coefficient (Comment Code K/L): K (Log of liquid dish neat product liquid-air partition coefficient greater than or equal to 7)

SMILES: CCC(=O)OC(C)c1ccccc1 (stereo not shown) [Material 96]
- Comment Code: Log of liquid dish neat product liquid-air partition coefficient: K (Log of liquid dish neat product liquid-air partition coefficient greater than or equal to 7)

SMILES: CC(O)CCc1ccccc1 (stereo not shown) [Material 98]
- Log of liquid dish neat product liquid-air partition coefficient (Comment Code K/L): K (Log of liquid dish neat product liquid-air partition coefficient greater than or equal to 7)

SMILES: CCCCCCCCCC(C)C(OC)OC (stereo not shown) [Material 101]
- Log of liquid dish neat product liquid-air partition coefficient (Comment Code K/L): K (Log of liquid dish neat product liquid-air partition coefficient greater than or equal to 7)

SMILES: CCCCCCCCCC(C)C=O (stereo not shown) [Material 103]
- Log of liquid dish neat product liquid-air partition coefficient (Comment Code K/L): K (Log of liquid dish neat product liquid-air partition coefficient greater than or equal to 7)

SMILES: CCCCCCCCCCCCCC(=O)OC [Material 104]
- Log of liquid dish neat product liquid-air partition coefficient (Comment Code K/L): K (Log of liquid dish neat product liquid-air partition coefficient greater than or equal to 7)

SMILES: CCCCCCC(CO)C(C)=O (stereo not shown) [Material 106]
- Log of liquid dish neat product liquid-air partition coefficient (Comment Code K/L): K (Log of liquid dish neat product liquid-air partition coefficient greater than or equal to 7)

SMILES: CC=Cc1ccc(OC)c(OC)c1 [Material 108]
- Log of liquid dish neat product liquid-air partition coefficient (Comment Code K/L): K (Log of liquid dish neat product liquid-air partition coefficient greater than or equal to 7)

SMILES: CCCCCCCCCCCCCCCC(=O)OC [Material 109]
- Log of liquid dish neat product liquid-air partition coefficient (Comment Code K/L): K (Log of liquid dish neat product liquid-air partition coefficient greater than or equal to 7)

SMILES: C=CCc1ccc(OC)c(OC)c1 [Material 110]
- Log of liquid dish neat product liquid-air partition coefficient (Comment Code K/L): K (Log of liquid dish neat product liquid-air partition coefficient greater than or equal to 7)

SMILES: CCC=CCC1C(=O)CCC1CC(=O)OC (stereo not shown) [Material 112]
- Log of liquid dish neat product liquid-air partition coefficient (Comment Code K/L): K (Log of liquid dish neat product liquid-air partition coefficient greater than or equal to 7)
